# Entries after “also recorded” stand apart in the source; their conditions may differ.
# Legend:
# trained sensory panel [1] = test: Taste recognition thresholds for kokumi/mouthfulness enhancement, duo-trio tests in chanterelle flavor recombinant; type: in vivo, human; conditions: for Kokumi threshold: in recombinant chanterelle flavor, pH 5.8, duo-trio test; for Kokumi effect (in words): vis-à-vis recombinant chanterelle flavor
# Experimental: An artificial chanterelle flavor recombinant was used as a reference flavor for determining the flavor-enhancing effect of the compounds to be tested. The pH value was adjusted to 5.8 with trace amounts of formic acid: Seventeen trained assessors (ten women and seven men, ages 23-30) were recruited from the Chair of Food Chemistry and Molecular Sensory Science (TUM). The sensory sessions were performed at 22° C. in air-conditioned sensory booths. To prevent cross-modal interactions with odorants, the panelists used nose-clips. Furthermore the light in the sensory booths was adjusted to yellow in order to eliminate optical differences between the samples. The taste threshold concentrations of the purified compounds were determined in the above-described chanterelle flavor recombinant using duo-trio-tests. The pH value of the individual samples and blanks was adjusted to 5.8 by adding trace amounts of formic acid. The samples were presented in serial 1:2 dilutions in order of increasing concentrations to the trained panel and the panelists were asked to mark the sample differing from the recombinant which was used as constant reference (one sample was identical to the reference, one sample was different). The threshold value of the sensory panel was approximated by averaging the threshold values of the individual panelists in two independent sessions.
# trained sensory panel [2] = test: Intrinsic taste recognition thresholds, three-alternative forced choice tests in 1% ethanol; type: in vivo, human; conditions: in 1% ethanol/water; for Intrinsic taste quality: taste recognized at threshold; for Intrinsic taste threshold: three-alternative forced choice
# Experimental: Seventeen trained assessors (ten women and seven men, ages 23-30) were recruited from the Chair of Food Chemistry and Molecular Sensory Science (TUM). The sensory sessions were performed at 22° C. in air-conditioned sensory booths. To prevent cross-modal interactions with odorants, the panelists used nose-clips. Furthermore the light in the sensory booths was adjusted to yellow in order to eliminate optical differences between the samples. The human recognition thresholds for the intrinsic taste of the purified compounds were determined by means of three-alternative forced choice tests in 1% ethanol. Serial 1:2 dilutions of the sample were presented in order of increasing concentrations to the panelists using the sip-and-spit-method. The geometric mean of the last and the next-to-last concentrations were calculated and taken as the individual recognition threshold. The threshold values evaluated in two different sessions were averaged.
SMILES,Kokumi threshold (trained sensory panel [1]),Intrinsic taste quality (trained sensory panel [2]),Intrinsic taste threshold (trained sensory panel [2]),Kokumi effect (in words) (trained sensory panel [1])
"CCC/C=C\C#CC/C=C\CCCCCCCC(=O)OCC [Compound 13, 14,15-dehydrocrepenynic acid ethyl ester]",59 µmol/L,[astringent],512 µmol/L,
"CC/C=C/C(=O)C#CC/C=C\CCCCCCCC(=O)O [Compound 5, (9Z,15E)-14-oxo-9,15-octadecadien-12-ynoic acid]",19 µmol/L,[pungent],228 µmol/L,
"CC/C=C/C(=O)C#CC/C=C\CCCCCCCC(=O)OC [Compound 9, (9Z,15E)-14-oxo-9,15-octadecadien-12-ynoic acid methyl ester]",59 µmol/L,,,
"CCC/C=C\CC(O)/C=C/CCCCCCCCC(=O)O (stereo not drawn) [Compound 8, (10E,14Z)-12-hydroxy-10,14-octadecadienoic acid]",,[bitter],297 µmol/L,did not exhibit a kokumi effect; also recorded: do not exhibit a kokumi flavor
"O=C(O)CCCCCCC/C=C\C=C/CC(O)CCCCO (stereo not drawn) [Compound 3, (9Z,11Z)-14,18-dihydroxyoctadeca-9,11-dienoic acid]",,[bitter],281 µmol/L,did not exhibit a kokumi effect; also recorded: do not exhibit a kokumi flavor
"CCC/C=C\C#C/C=C/C(CCCCCCCC(=O)O)OO (stereo not drawn) [Compound 10, (10E,14Z)-9-hydroperoxy-10,14-octadecadien-12-ynoic acid]",38 µmol/L,[bitter],536 µmol/L,
"CCC/C=C\C#C/C=C/C(=O)CCCCCCCC(=O)O [Compound 6, (10E,14Z)-9-oxo-10,14-octadecadien-12-ynoic acid]",79 µmol/L,[astringent],639 µmol/L,
"CCC/C=C\C#CC/C=C\CCCCCCCC(=O)O [Compound 11, 14,15-dehydrocrepenynic acid]",105 µmol/L,[bitter],531 µmol/L,
"O=C(O)CCCCCCC/C=C\CC#CC(O)/C=C/C(O)CO (stereo not drawn) [Compound 1, (9Z,15E)-14,17,18-trihydroxy-9,15-octadecadien-12-ynoic acid]",59 µmol/L,,>1000 µmol/L,
"CCC/C=C\C#CC/C=C\CCCCCCCC(=O)OC [Compound 12, 14,15-dehydrocrepenynic acid methyl ester]",32 µmol/L,[astringent],648 µmol/L,
"CCCCCC/C=C/C#CCCCCCCCC(=O)O [ximenynic acid, 11E-octadecen-9-ynoic acid, reference compound]",84 µmol/L,[bitter],482 µmol/L,
"CCC/C=C\C#C/C=C/C(O)CCCCCCCC(=O)O (stereo not drawn) [Compound 4, (10E,14Z)-9-hydroxy-10,14-octadecadien-12-ynoic acid]",69 µmol/L,[astringent],320 µmol/L,
"O=C(O)CCCCCCC/C=C\C=C/CC(O)CCC(O)CO (stereo not drawn) [Compound 2, (9Z,11Z)-14,17,18-trihydroxy-9,11-octadecadienoic acid]",,[bitter],331 µmol/L,did not exhibit a kokumi effect; also recorded: do not exhibit a kokumi flavor
